Reference: patent publication US20230265151A1, “GIP/GLP1 CO-AGONIST COMPOUNDS” (priority 2020, published 2023)
Where two headings read alike, the source gives them in different places.

Tests used:
Format in all cases: cell-based
hGIPR = target: T1, hGIPR (Homo sapiens, UniProt P48546); assay: Functional cAMP formation (HTRF) in HEK-293 clonal cells expressing hGIPR, 0.1% bovine casein, without or with 1.0% human serum albumin; details: for Emax: percent of maximal response to GIP(1-42)NH2; for EC50: geometric mean
T1 construct: expressed in transfected cells
T1 sequence (P48546 22-466): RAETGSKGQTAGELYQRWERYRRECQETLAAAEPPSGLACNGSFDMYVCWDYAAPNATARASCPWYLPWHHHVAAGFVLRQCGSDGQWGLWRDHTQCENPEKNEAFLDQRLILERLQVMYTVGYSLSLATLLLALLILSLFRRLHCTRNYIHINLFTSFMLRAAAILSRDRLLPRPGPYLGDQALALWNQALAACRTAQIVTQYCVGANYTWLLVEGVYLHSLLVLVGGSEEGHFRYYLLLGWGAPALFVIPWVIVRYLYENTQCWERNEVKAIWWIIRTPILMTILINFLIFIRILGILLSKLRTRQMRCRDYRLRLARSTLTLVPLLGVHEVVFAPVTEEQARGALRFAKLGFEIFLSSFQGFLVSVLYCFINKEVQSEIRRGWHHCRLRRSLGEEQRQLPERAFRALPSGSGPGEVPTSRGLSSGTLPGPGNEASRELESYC
How it was run: (§1)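 Readings of the HTRF 665/620 nm ratio, which falls as cAMP rises, were converted to nM cAMP using a standard curve after 30 min peptide exposure at 37° C.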

hGCGR = target: T2, hGCGR (Homo sapiens, UniProt P47871); assay: Functional cAMP formation (HTRF) in HEK-293 clonal cells expressing hGCGR, 0.1% bovine casein, without or with 1.0% human serum albumin; details: 37° C., geometric mean
T2 construct: expressed in transfected cells
How it was run: as §1

hGLP-1R = hGLP-1R (Homo sapiens, UniProt P43220); assay: Functional cAMP formation (HTRF) in HEK-293 clonal cells expressing hGLP-1R, 0.1% bovine casein, without or with 1.0% human serum albumin; set-up: expressed in transfected cells; details: for Emax: percent of maximal response to GLP-1(7-36)NH2; for EC50: cAMP, 0.1% bovine casein (no human serum albumin), geometric mean
How it was run: as §1

[1] = hGIPR EC50, nM (SEM, n), 0.1% bovine casein and 1.0% human serum albumin, 37° C.
[2] = hGIPR EC50, nM (SEM, n), cAMP, 37° C., 0.1% bovine casein (no human serum albumin)
[3] = hGCGR EC50, nM (SEM, n), 0.1% bovine casein and 1.0% human serum albumin
[4] = hGCGR EC50, nM (SEM, n), cAMP, 0.1% bovine casein (no human serum albumin)
[5] = HEK293, read-out: hGLP-1R Emax, % ± SEM, cAMP, 37° C., 0.1% bovine casein, arithmetic mean
[6] = hGLP-1R EC50, nM (SEM, n), 37° C.
[7] = HEK293, read-out: hGIPR Emax, % ± SEM, cAMP, 37° C., 0.1% bovine casein, arithmetic mean
[8] = HEK293, read-out: hGLP-1R Emax, % ± SEM, 0.1% bovine casein and 1.0% human serum albumin, 37° C.

Sequence of hGLP-1R (P43220 24-463): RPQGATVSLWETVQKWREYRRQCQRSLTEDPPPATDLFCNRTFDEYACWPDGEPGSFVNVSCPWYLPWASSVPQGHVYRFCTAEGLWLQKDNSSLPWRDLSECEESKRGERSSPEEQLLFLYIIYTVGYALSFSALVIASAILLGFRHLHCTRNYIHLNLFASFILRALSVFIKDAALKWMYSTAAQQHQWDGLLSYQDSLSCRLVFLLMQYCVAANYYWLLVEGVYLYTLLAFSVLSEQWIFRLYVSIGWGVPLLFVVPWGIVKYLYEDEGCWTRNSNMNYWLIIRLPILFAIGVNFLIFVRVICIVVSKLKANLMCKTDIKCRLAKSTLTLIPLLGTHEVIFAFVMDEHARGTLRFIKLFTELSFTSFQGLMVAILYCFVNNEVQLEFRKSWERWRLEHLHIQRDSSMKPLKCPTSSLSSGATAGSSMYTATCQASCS
T2 sequence (P47871 26-477): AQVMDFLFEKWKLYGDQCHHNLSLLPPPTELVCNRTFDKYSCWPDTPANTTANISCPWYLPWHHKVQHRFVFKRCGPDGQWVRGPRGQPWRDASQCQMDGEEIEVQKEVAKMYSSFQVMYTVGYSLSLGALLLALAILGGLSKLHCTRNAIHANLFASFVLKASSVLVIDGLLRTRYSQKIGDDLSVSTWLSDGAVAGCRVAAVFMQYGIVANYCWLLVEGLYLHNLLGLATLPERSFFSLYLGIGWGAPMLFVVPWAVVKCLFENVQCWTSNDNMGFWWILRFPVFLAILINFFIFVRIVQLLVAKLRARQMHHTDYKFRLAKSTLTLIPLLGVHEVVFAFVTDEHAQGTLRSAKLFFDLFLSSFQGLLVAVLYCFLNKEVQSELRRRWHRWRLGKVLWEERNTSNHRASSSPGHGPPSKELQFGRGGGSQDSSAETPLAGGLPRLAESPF

SMILES	Emax (hGIPR; HEK293, 0.1% bovine casein and 1.0% human serum albumin, 37° C., read-out: hGIPR Emax, % ± SEM)	Emax (hGIPR; HEK293, cAMP, 37° C., 0.1% bovine casein, arithmetic mean, read-out: hGIPR Emax, % ± SEM)	EC50 (hGIPR; cAMP, 37° C., 0.1% bovine casein (no human serum albumin), read-out: hGIPR EC50, nM (SEM, n))	EC50 (hGCGR; 0.1% bovine casein and 1.0% human serum albumin, read-out: hGCGR EC50, nM (SEM, n))	EC50 (hGCGR; cAMP, 0.1% bovine casein (no human serum albumin), read-out: hGCGR EC50, nM (SEM, n))	Emax (hGLP-1R; HEK293, 0.1% bovine casein and 1.0% human serum albumin, 37° C., read-out: hGLP-1R Emax, % ± SEM)	EC50 (hGLP-1R; 37° C., read-out: hGLP-1R EC50, nM (SEM, n))	EC50 (hGIPR; [1])	EC50 (hGIPR; [2])	EC50 (hGCGR; [3])	EC50 (hGCGR; [4])	Emax (hGLP-1R; [5])	EC50 (hGLP-1R; [6])	Emax (hGIPR; HEK293, read-out: hGIPR Emax, % ± SEM, 0.1% bovine casein and 1.0% human serum albumin, 37° C.)	Emax (hGIPR; [7])	Emax (hGLP-1R; [8])
CC[C@H](C)[C@H](NC(=O)[C@H](CCCN)NC(=O)[C@H](CC(=O)O)NC(=O)[C@H](CC(C)C)NC(=O)[C@](C)(CC(C)C)NC(=O)[C@@H](NC(=O)[C@](C)(CO)NC(=O)[C@@H](NC(=O)[C@H](CC(=O)O)NC(=O)[C@H](CO)NC(=O)[C@@H](NC(=O)[C@](C)(Cc1ccccc1F)NC(=O)[C@@H](NC(=O)CNC(=O)[C@H](CCC(=O)O)NC(=O)C(C)(C)NC(=O)[C@@H](N)Cc1ccc(O)cc1)[C@@H](C)O)[C@@H](C)O)C(C)C)[C@@H](C)CC)C(=O)N[C@@H](C)C(=O)N[C@@H](CCC(N)=O)C(=O)NC(C)(C)C(=O)N[C@@H](CCC(=O)O)C(=O)N[C@@H](Cc1ccccc1)C(=O)N[C@H](C(=O)N[C@@H](CCCCNC(=O)COCCOCCNC(=O)COCCOCCNC(=O)CC[C@H](NC(=O)CCCCCCCCCCCCC(=O)O)C(=O)O)C(=O)N[C@@](C)(Cc1ccc(O)cc1)C(=O)N[C@@H](CC(C)C)C(=O)N[C@H](C(=O)N[C@@H](CCCCNC(=O)COCCOCCNC(=O)COCCOCCNC(=O)CC[C@H](NC(=O)CCCCCCCCCCCCC(=O)O)C(=O)O)C(=O)NCC(=O)NCC(=O)N1CCC[C@H]1C(=O)N[C@@H](CO)C(=O)N[C@@H](CO)C(=O)NCC(=O)N[C@@H](C)C(=O)N1CCC[C@H]1C(=O)N1CCC[C@H]1C(=O)N1CCC[C@H]1C(=O)N[C@@H](CO)C(N)=O)[C@@H](C)CC)[C@@H](C)CC [Example 305]	95.4%	105%	0.0289 nM	> 9950 nM	> 9950 nM	125%	0.629 nM	–	–	–	–	–	–	–	–	–
CC[C@H](C)[C@H](NC(=O)[C@H](CCCN)NC(=O)[C@H](CC(=O)O)NC(=O)[C@H](CC(C)C)NC(=O)[C@](C)(CC(C)C)NC(=O)[C@@H](NC(=O)[C@](C)(CO)NC(=O)[C@H](Cc1ccncc1)NC(=O)[C@H](CC(=O)O)NC(=O)[C@H](CO)NC(=O)[C@@H](NC(=O)[C@](C)(Cc1ccccc1F)NC(=O)[C@@H](NC(=O)CNC(=O)[C@H](CCC(=O)O)NC(=O)C(C)(C)NC(=O)[C@@H](N)Cc1ccc(O)cc1)[C@@H](C)O)[C@@H](C)O)[C@@H](C)CC)C(=O)N[C@@H](C)C(=O)N[C@@H](CCC(N)=O)C(=O)NC(C)(C)C(=O)N[C@@H](CCC(=O)O)C(=O)N[C@@H](Cc1ccccc1)C(=O)N[C@H](C(=O)N[C@@H](CCCCNC(=O)COCCOCCNC(=O)COCCOCCNC(=O)CC[C@H](NC(=O)CCCCCCCCCOc1ccc(C(=O)O)cc1)C(=O)O)C(=O)N[C@@](C)(Cc1ccc(O)cc1)C(=O)N[C@@H](CC(C)C)C(=O)N[C@H](C(=O)N[C@@H](CCCCNC(=O)COCCOCCNC(=O)COCCOCCNC(=O)CC[C@H](NC(=O)CCCCCCCCCOc1ccc(C(=O)O)cc1)C(=O)O)C(=O)NCC(=O)NCC(=O)N1CCC[C@H]1C(=O)N[C@@H](CO)C(=O)N[C@@H](CO)C(=O)NCC(=O)N[C@@H](C)C(=O)N1CCC[C@H]1C(=O)N1CCC[C@H]1C(=O)N1CCC[C@H]1C(=O)N[C@@H](CO)C(N)=O)[C@@H](C)CC)[C@@H](C)CC [Example 306]	–	–	–	–	–	–	–	1.12 nM	0.0227 nM	> 9950 nM	> 9950 nM	105%	0.414 nM	–	–	–
CC[C@H](C)[C@H](NC(=O)[C@H](CCCN)NC(=O)[C@H](CC(=O)O)NC(=O)[C@H](CC(C)C)NC(=O)[C@](C)(CC(C)C)NC(=O)[C@@H](NC(=O)[C@](C)(CO)NC(=O)[C@H](Cc1ccc(O)cc1)NC(=O)[C@H](CC(=O)O)NC(=O)[C@H](CO)NC(=O)[C@@H](NC(=O)[C@](C)(Cc1ccccc1F)NC(=O)[C@@H](NC(=O)CNC(=O)[C@H](CCC(=O)O)NC(=O)C(C)(C)NC(=O)[C@@H](N)Cc1ccc(O)cc1)[C@@H](C)O)[C@@H](C)O)[C@@H](C)CC)C(=O)N[C@@H](C)C(=O)N[C@@H](CCC(N)=O)C(=O)NC(C)(C)C(=O)N[C@@H](CCC(=O)O)C(=O)N[C@@H](Cc1ccccc1)C(=O)N[C@H](C(=O)N[C@@H](CCCCNC(=O)COCCOCCNC(=O)COCCOCCNC(=O)CC[C@H](NC(=O)CCCCCCCCCOc1ccc(C(=O)O)cc1)C(=O)O)C(=O)N[C@@](C)(Cc1ccc(O)cc1)C(=O)N[C@@H](CC(C)C)C(=O)N[C@H](C(=O)N[C@@H](CCCCNC(=O)COCCOCCNC(=O)COCCOCCNC(=O)CC[C@H](NC(=O)CCCCCCCCCOc1ccc(C(=O)O)cc1)C(=O)O)C(=O)NCC(=O)NCC(=O)N1CCC[C@H]1C(=O)N[C@@H](CO)C(=O)N[C@@H](CO)C(=O)NCC(=O)N[C@@H](C)C(=O)N1CCC[C@H]1C(=O)N1CCC[C@H]1C(=O)N1CCC[C@H]1C(=O)N[C@@H](CO)C(N)=O)[C@@H](C)CC)[C@@H](C)CC [Example 307]	–	–	–	–	–	–	–	1.66 nM	0.0292 nM	> 9950 nM	> 9950 nM	–	0.376 nM	81.8%	105%	109%
CC[C@H](C)[C@H](NC(=O)[C@H](CCCN)NC(=O)[C@H](CC(=O)O)NC(=O)[C@H](CC(C)C)NC(=O)[C@](C)(CC(C)C)NC(=O)[C@@H](NC(=O)C(C)(C)NC(=O)[C@@H](NC(=O)[C@H](CC(=O)O)NC(=O)[C@H](CO)NC(=O)[C@@H](NC(=O)[C@](C)(Cc1ccccc1F)NC(=O)[C@@H](NC(=O)CNC(=O)[C@H](CCC(=O)O)NC(=O)C(C)(C)NC(=O)[C@@H](N)Cc1ccc(O)cc1)[C@@H](C)O)[C@@H](C)O)C(C)C)[C@@H](C)CC)C(=O)N[C@@H](C)C(=O)N[C@@H](CCC(N)=O)C(=O)NC(C)(C)C(=O)N[C@@H](CCC(=O)O)C(=O)N[C@@H](Cc1ccccc1)C(=O)N[C@H](C(=O)N[C@@H](CCCCNC(=O)COCCOCCNC(=O)COCCOCCNC(=O)CC[C@H](NC(=O)CCCCCCCCCOc1ccc(C(=O)O)cc1)C(=O)O)C(=O)N[C@@](C)(Cc1ccc(O)cc1)C(=O)N[C@@H](CC(C)C)C(=O)N[C@H](C(=O)N[C@@H](CCCCNC(=O)COCCOCCNC(=O)COCCOCCNC(=O)CC[C@H](NC(=O)CCCCCCCCCOc1ccc(C(=O)O)cc1)C(=O)O)C(=O)NCC(=O)NCC(=O)N1CCC[C@H]1C(=O)N[C@@H](CO)C(=O)N[C@@H](CO)C(=O)NCC(=O)N[C@@H](C)C(=O)N1CCC[C@H]1C(=O)N1CCC[C@H]1C(=O)N1CCC[C@H]1C(=O)N[C@@H](CO)C(N)=O)[C@@H](C)CC)[C@@H](C)CC [Example 308]	–	–	–	–	–	–	–	–	0.0551 nM	> 9950 nM	> 9950 nM	98%	0.689 nM	–	117%	92.2%
